The numbers were not newly measured in US20130023661A1, “FLUORINATING REAGENTS WITH (PERFLUORALKYL) FLUOROPHOSPHATE ANION” (MERCK PATENT GESELLSCHAFT MIT BESCHRANKTER HAFTUNG, priority 2010, published 2013), which cites them from elsewhere.

For the series the following is noted: stored in a cool, dry place.

Consider `F[N+]12CC[N+](CCl)(CC1)CC2` [F-TEDA-BF4, 1-chloromethyl-4-fluorodiazoniabicyclo[2.2.2]octane bistetrafluoroborate], for which the guaranteed storage stability entry was “not more than one year”.
